The numbers were not newly measured in paper PMC10114980, “Triple targeting of mutant EGFR^L858R/T790M, COX-2, and 15-LOX: design and synthesis of novel quinazolinone tethered phenyl urea derivatives for anti-inflammatory and anticancer evaluation” (Journal of Enzyme Inhibition and Medicinal Chemistry, 2023), which cites them from elsewhere.

By IC50 is commonly meant the concentration that gives 50% inhibition.

For the series, the system named is EGFR. To be noted: Figure 2; cited from earlier work.

For the compound `O=C(CNc1ccc(Cl)cc1)Cn1c(-c2ccccc2)nc2ccccc2c1=O` [G], the IC50 was 81 nM.

With `Cc1cccc(Cl)c1NC(=O)Nc1ccc(-c2nc(NCCN(C)C)c3ccccc3n2)cc1` [I], the IC50 is 56 nM.
